Reference: patent US20180243298A1, “TRPV3 MODULATORS” (AbbVie Inc., priority 2015, published 2018)
pEC50, pIC50: −log10 of the molar value. Read-outs that look alike come from different tables or passages of the source.

Tests used:
TRPV3 = TRPV3 activation, relatively weak and nonspecific across TRPs; cited from earlier work
FITC-challenged mice = assay: Contact hypersensitivity (CHS) to FITC, ear swelling in mice; format: in vivo, mice (BALB/c); details: reduction in ear skin thickness vs vehicle, 24 hours after FITC challenge
Method: (ii) In vivo Data The following protocol was used to evaluate the efficacy of a compound against contact hypersensitivity:
Young adult female BALB/c mice (18±2 g body weight at 6-8 weeks old) Charles River Laboratories) were maintained under pathogen-free conditions and housed in an animal room maintained t at temperature of 21±1° C. and a humidity of 43±5%. Induction of contact hypersensitivity (CHS) and ear thickness measurements for all animals were carried out under light anesthesia (3-5% isoflurane/oxygen) for 1-2 minutes.
Contact hypersensitivity consists of the afferent or initiation sensitizing phase, and the efferent or elicitation phase. The latter phase occurs when epidermal cells encounter a particular antigen to which the epidermal cells have previously been exposed, and is characterized in rodents by localized swelling in the skin.
Fluorescein isothiocyanate (FITC) was purchased from Sigma-Aldrich and dissolved in 1:1 in acetone/dibutylphthalate prior to epicutaneous application. Mice were sensitized by painting epicutaneously 40 uL of 0.5% FITC on the abdomen ventral skin shaved one day prior to sensitization. Six days later, mice were challenged by painting epicutaneously 20 uL total volume of 0.5% FITC on the right ear (10 uL on either side). Control mice were treated with vehicle only. Ear swelling was measured 24 hours after challenge. Treatment groups were dosed orally at a dose volume of 10 mL/kg with compounds either BID (1 hour prior to FITC challenge, 8 hours after first dose and 2 hours prior to ear swelling measurement at 24 hours post FITC challenge) or QD (1 hour prior to FITC challenge and 2 hours prior to ear swelling measurement at 24 hours post FITC challenge). Inflammation was determined by the degree of ear swelling of the hapten exposed ear compared with the untreated ear with a Quick Mini thickness-gauge caliber (Mitutoyo, Japan). The change in ear thickness after allergen treatment can be used to calculate the percent suppression of contact hypersensitivity.
The level of compound-mediated suppression of ear skin thickness in FITC-challenged mice is indicated in Table 2 wherein “A” refers to a reduction in ear skin thickness of >50%, “B” refers to a reduction in ear skin thickness of 30-50% and “C” refers to a reduction in ear skin thickness of <30% relative to vehicle-treated animals.

human TRPV3 = target: T1, human TRPV3 (Homo sapiens, UniProt Q8NET8); assay: Calcium flux assay (FLIPR TETRA), recombinant HEK293 cells expressing TRPV3, 2-APB response; format: cell-based; details: 2-APB at its EC80
T1 construct: expressed in transfected cells; host or cells: HEK293
T1 sequence (Q8NET8 1-790): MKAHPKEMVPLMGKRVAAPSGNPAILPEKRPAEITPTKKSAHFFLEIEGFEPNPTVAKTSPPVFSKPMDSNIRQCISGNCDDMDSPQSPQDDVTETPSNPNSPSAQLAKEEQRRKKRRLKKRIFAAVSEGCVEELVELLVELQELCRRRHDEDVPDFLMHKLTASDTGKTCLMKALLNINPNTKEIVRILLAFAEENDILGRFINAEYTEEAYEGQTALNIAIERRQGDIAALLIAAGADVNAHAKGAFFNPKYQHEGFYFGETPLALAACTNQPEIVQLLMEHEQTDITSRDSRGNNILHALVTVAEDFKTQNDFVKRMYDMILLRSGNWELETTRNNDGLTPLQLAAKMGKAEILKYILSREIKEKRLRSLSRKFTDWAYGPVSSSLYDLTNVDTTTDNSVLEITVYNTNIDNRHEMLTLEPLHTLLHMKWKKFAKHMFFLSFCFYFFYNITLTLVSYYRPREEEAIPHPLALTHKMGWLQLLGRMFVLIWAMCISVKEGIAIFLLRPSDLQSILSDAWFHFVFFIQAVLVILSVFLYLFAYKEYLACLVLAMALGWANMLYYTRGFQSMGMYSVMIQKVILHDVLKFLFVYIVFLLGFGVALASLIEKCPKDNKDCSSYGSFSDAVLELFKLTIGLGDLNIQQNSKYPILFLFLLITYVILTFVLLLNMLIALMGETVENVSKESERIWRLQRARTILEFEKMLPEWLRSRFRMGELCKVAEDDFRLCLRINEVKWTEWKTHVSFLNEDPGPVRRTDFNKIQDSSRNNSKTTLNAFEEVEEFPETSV
Outline: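 HEK293 cells stably expressing human or mouse TRPV3, loaded with Calcium-4 dye for 90–120 min, read on FLIPR TETRA. Peak fluorescence rise over baseline expressed as percent of the maximal response to 2-APB at its EC80 without compound.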

[1] = Mus musculus, 10 mg/kg qd po, read-out: FITC % effect
[2] = Mus musculus, 30 mg/kg bid po, read-out: FITC % effect

Row | Molecule | pIC50 (human TRPV3) | inhibition in vivo at 30 mg/kg (FITC-challenged mice; [2]) [%] | other results
1 | c1ccc(B(OB(c2ccccc2)c2ccccc2)c2ccccc2)cc1 [DPBA, diphenylboronic anhydride] |  |  | pEC50 (TRPV3): ~4.40
2 | NCCOB(c1ccccc1)c1ccccc1 [Example 2-APB, 2-aminoethoxydiphenylborate] |  |  | pEC50 (TRPV3): ~4.40
3 | COc1ncnc(OC)c1C(=O)Nc1nc(C(F)(F)F)c(CNCC(C)C)s1 [Example 52, 4,6-dimethoxy-N-[5-{[(2-methylpropyl)amino]methyl}-4-(trifluoromethyl)-1,3-thiazol-2-yl]pyrimidine-5-carboxamide] | 7.00 to 7.30 |  | inhibition in vivo at 10 mg/kg (FITC-challenged mice; [1]): 30 to 50%
4 | COc1ncnc(OC)c1C(=O)Nc1nc(C(F)(F)F)c(CN2CCC(F)CC2)s1 [Example 53, N-{5-[(4-fluoropiperidin-1-yl)methyl]-4-(trifluoromethyl)-1,3-thiazol-2-yl}-4,6-dimethoxypyrimidine-5-carboxamide] | > 7.30 |  | inhibition in vivo at 10 mg/kg (FITC-challenged mice; Mus musculus, 10 mg/kg bid po, read-out: FITC % effect): 30 to 50%
5 | COc1ncnc(OC)c1C(=O)Nc1nc(C(F)(F)F)c(CN2CC[C@@H](F)C2)s1 [Example 58, N-[5-{[(3R)-3-fluoropyrrolidin-1-yl]methyl}-4-(trifluoromethyl)-1,3-thiazol-2-yl]-4,6-dimethoxypyrimidine-5-carboxamide] | 7.00 to 7.30 |  | inhibition in vivo at 10 mg/kg (FITC-challenged mice; [1]): 30 to 50%
6 | COc1ncnc(OC)c1C(=O)Nc1nc(C(F)(F)F)c(-c2cccnc2C)s1 [Example 64, 4,6-dimethoxy-N-[5-(2-methylpyridin-3-yl)-4-(trifluoromethyl)-1,3-thiazol-2-yl]pyrimidine-5-carboxamide] | > 7.30 |  | inhibition in vivo at 30 mg/kg (FITC-challenged mice; Mus musculus, 30 mg/kg qd po, read-out: FITC % effect): 30 to 50%
7 | COc1ncnc(OC)c1C(=O)Nc1nc(C(F)(F)F)c(-c2cc(C(F)(F)F)nn2C)s1 [Example 65, 4,6-dimethoxy-N-{5-[1-methyl-3-(trifluoromethyl)-1H-pyrazol-5-yl]-4-(trifluoromethyl)-1,3-thiazol-2-yl}pyrimidine-5-carboxamide] | > 7.30 | < 30 | 
8 | COc1ncnc(OC)c1C(=O)Nc1nc(C(F)(F)F)c(-c2ccnc(C#N)c2)s1 [Example 66, N-[5-(2-cyanopyridin-4-yl)-4-(trifluoromethyl)-1,3-thiazol-2-yl]-4,6-dimethoxypyrimidine-5-carboxamide] | 7.00 to 7.30 |  | inhibition in vivo at 100 mg/kg (FITC-challenged mice; Mus musculus, 100 mg/kg bid po, read-out: FITC % effect): > 50%
9 | COc1ncnc(OC)c1C(=O)Nc1nc(C(F)(F)F)c(-c2cnoc2)s1 [Example 169, 4,6-dimethoxy-N-[5-(1,2-oxazol-4-yl)-4-(trifluoromethyl)-1,3-thiazol-2-yl]pyrimidine-5-carboxamide] | > 7.30 | < 30 | 
10 | COc1ncnc(OC)c1C(=O)Nc1nc(C(F)(F)F)c(-c2cncc(C(F)(F)F)c2)s1 [Example 196, 4,6-dimethoxy-N-{4-(trifluoromethyl)-5-[5-(trifluoromethyl)pyridin-3-yl]-1,3-thiazol-2-yl}pyrimidine-5-carboxamide] | > 7.30 | < 30 | 
11 | COc1ncnc(OC)c1C(=O)Nc1nc(C(F)(F)F)c(-c2ccc3nonc3c2)s1 [Example 199, N-[5-(2,1,3-benzoxadiazol-5-yl)-4-(trifluoromethyl)-1,3-thiazol-2-yl]-4,6-dimethoxypyrimidine-5-carboxamide] | > 7.30 | 30 to 50 | 
12 | COc1ncnc(OC)c1C(=O)Nc1nc(C(F)(F)F)c(-c2cnc(C(F)(F)F)nc2)s1 [Example 202, 4,6-dimethoxy-N-{4-(trifluoromethyl)-5-[2-(trifluoromethyl)pyrimidin-5-yl]-1,3-thiazol-2-yl}pyrimidine-5-carboxamide] | > 7.30 | < 30 | 
13 | N-[5-(4-cyanophenyl)-4-(trifluoromethyl)-1,3-thiazol-2-yl]-4,6-dimethoxypyrimidine-5-carboxamide [Example 41] | > 7.30 |  | FITC % effect (FITC-challenged mice; 30 mg/kg bid po): C (a reduction in ear skin thickness of <30% relative to vehicle-treated animals)
